Data set [1] is described as follows: Plasma protein binding assay (PPB), equilibrium dialysis. Format: in vitro ADME. The following applies: bovine, 10% FCS in PBS, read-out: PPB 10% FCS (% fu). On the procedure:
Binding of test compounds to plasma was determined using equilibrium dialysis (ED) and quantitative mass spectrometry interfaced with liquid chromatography (LC-MS). In brief, ED was performed with dialysis devices consisting of two chambers separated by a semipermeable membrane with a molecular weight cut-off of 5-10 kg/mol. One chamber was filled with 10% FCS in PBS containing 1-10 μmol/L test compound and the other chamber was filled with phosphate-buffer saline (PBS) with or without dextran. The dialysis chamber was incubated for 3-5 hours at 37° C. After incubation, protein was precipitated from aliquots of each chamber and the concentration of test compound in the supernatant of the plasma-containing compartment (cserum) and of the buffer-containing compartment (cbuffer) was determined by LC-MS. The fraction of unbound test compound (not bound to plasma) (fu) was calculated according to the following equation: […]

The test system of another data set is LOVO cells. Briefly: LOVO CTG proliferation assay (120 h). Format: cell-based. The following applies: Homo sapiens, CRC, G13D. The method, then: LOVO cells (ATCC CCL-229) are dispensed into 384-well plates, flat and clear bottom (Greiner, PNr. 781091) at a density of 1000 cells per well in 60 μL DMEM (Sigma D6429)+10% Fetal Calf Serum (HyClone, PNr.: SH30084.03) and incubated at 37° C. in a CO2 incubator overnight. The next day, compounds (10 mM stock in DMSO) are added with the ECHO acoustic liquid handler system (Beckman Coulter), including DMSO controls. Plates are incubated for 120 h, and cell viability is measured using CellTiter-Glo luminescent cell viability reagent (Promega product code G7570). Viability (stated as percent of control) is defined as relative luminescence units RLU of each well divided by the RLU of cells in DMSO controls. IC50 values are determined from viability measurements by non-linear regression using a four-parameter model.

The next data set concerns the target T1, KRAS (G12V) and SOS1 (Homo sapiens, UniProt P01116, C118S/G12V).
T1 construct: KRAS (G12V) 1-169, N-terminal 6His-tag for purification; 6His (N, cleaved yes); TEV cleavage site
Kind of data set: KRAS::SOS1 AlphaScreen binding assay, KRAS G12V. On the procedure:
(§1) Low IC50 values in this assay setting are indicative of strong inhibition of protein-protein interaction between SOS1 and KRAS:
(§2) These assays measure the inhibitory effect of compounds on KRAS mutant protein-protein interactions using the Alpha Screen technology by Perkin Elmer.
(§3) For the chosen highest assay concentration of 100 μM, 150 nL of compound solution are transferred from a 10 mM DMSO compound stock solution. A series of eleven fivefold dilutions per compound are transferred to the assay plate, compound dilutions are tested in duplicates. DMSO are added as backfill to a total volume of 150 nL.
The assays run on a fully automated robotic system in a darkened room below 100 Lux. To 150 nl of compound dilution 10 μl of a mix including KRAS mutant protein, SOS1 (final assay concentrations see above) and GDP nucleotide (Sigma G7127; final assay concentration 10 μM) in assay buffer (1×PBS, 0.1% BSA, 0.05% Tween 20) are added into columns 1-24. After 30 minutes incubation time 5 μl of Alpha Screen bead mix in assay buffer are added into columns 1-23.
(§4) Plates are kept at room temperature in a darkened incubator. After an additional 60 minutes incubation time the signal is measured in a PerkinElmer Envision HTS Multilabel Reader using the AlphaScreen specs from PerkinElmer.
(§5) IC50 values are calculated and analyzed with Boehringer Ingelheim's MEGALAB IC50 application using a 4 parametric logistic model.

The next data set concerns the target T2, KRAS (WT) and SOS1 (Homo sapiens, UniProt P01116, C118S).
T2 construct: KRAS (WT) 1-169, N-terminal 6His-tag for purification; 6His (N, cleaved yes); TEV cleavage site
Kind of data set: KRAS::SOS1 AlphaScreen binding assay, KRAS WT. The method, then: as §1, §2, §3
The assays run on a fully automated robotic system in a darkened room below 100 Lux. To 150 nl of compound dilution 10 μl of a mix including KRAS mutant protein, SOS1 (final assay concentrations see above) and GDP nucleotide (Sigma G7127; final assay concentration 10 μM) in assay buffer (1×PBS, 0.1% BSA, 0.05% Tween 20) are added into columns 1-24. […]
as §4, §5

For the next data set, the system named is AsPC-1 cells. Kind of data set: AsPC-1 CTG proliferation assay (120 h). The data set is classed as cell-based. The following applies: Homo sapiens, ASPC1, pancreatic cancer, G12D. On the procedure: The CTG assay is designed to measure quantitatively the proliferation of AsPC-1 cells (ATCC […]), using the CellTiter Glow Assay Kit (Promega G7571). Cells are grown in RPMI medium (ATCC) supplemented with Fetal Calf Serum (Life Technologies, Gibco BRL, Cat. No. 10270-106). On “day 0” 2000 AsPC-1 cells are seeded in 60 μL RPMI ATCC+10% FCS+Penstrep in a 384-well plate, flat and clear bottom (Greiner, PNr. 781091). Cells are then incubated in the plates at 37° C. in a CO2 incubator overnight. On day 1, compounds (10 mM stock in DMSO) are added with the ECHO acoustic liquid handler system (Beckman Coulter), including DMSO controls. Plates are incubated for 120 h, and cell viability is measured using CellTiter-Glo luminescent cell viability reagent (Promega product code G7570). Viability (stated as percent of control) is defined as relative luminescence units RLU of each well divided by the RLU of cells in DMSO controls. IC50 values are determined from viability measurements by non-linear regression using a four-parameter model.

T1 sequence (P01116 1-169 isoform P01116-2 G12V/C118S): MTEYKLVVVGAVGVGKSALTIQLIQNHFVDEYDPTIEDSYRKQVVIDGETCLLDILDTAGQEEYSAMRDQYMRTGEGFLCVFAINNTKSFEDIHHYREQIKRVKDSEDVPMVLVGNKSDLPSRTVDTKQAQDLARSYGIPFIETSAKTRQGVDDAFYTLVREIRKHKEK
T2 sequence (P01116 1-169 isoform P01116-2 C118S): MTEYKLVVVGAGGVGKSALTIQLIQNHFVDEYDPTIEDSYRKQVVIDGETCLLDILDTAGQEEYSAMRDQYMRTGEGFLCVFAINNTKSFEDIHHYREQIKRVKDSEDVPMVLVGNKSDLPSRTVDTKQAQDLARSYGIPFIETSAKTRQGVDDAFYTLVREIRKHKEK

Take `C[C@H]1CN(C)CCN1c1cccc(-c2noc([C@@]3(C)CCCc4sc(N)c(C#N)c43)n2)n1` [Example V-1]: the fraction unbound in data set [1] turned out to be 0.21. Moreover, the half-maximal inhibitory concentration (IC50) in the data set with LOVO cells was determined as 8470 nM; at KRAS (G12V) and SOS1, 52 nM; on KRAS (WT) and SOS1, 125 nM; with AsPC-1 cells, 7240 nM.
On KRAS (G12V) and SOS1, `COCCCN1CCCN(c2nccc(-c3noc([C@@]4(C)CCCc5sc(N)c(C#N)c54)n3)n2)[C@@H](C)C1` [Example V-2] came in with an IC50 of 6 nM.
Regarding `C[C@H](Oc1cccc(-c2noc([C@@]3(C)CCCc4sc(N)c(C#N)c43)n2)n1)[C@@H]1CCCN1C` [Example V-8], the fraction unbound in data set [1] turned out to be 0.51. In addition, the IC50 with LOVO cells amounted to 1430 nM; on KRAS (G12V) and SOS1, 9 nM; on KRAS (WT) and SOS1, 28 nM; in the data set with AsPC-1 cells it was 3950 nM.
`C[C@H](Oc1ccnc(-c2noc([C@@]3(C)CCCc4sc(N)c(C#N)c43)n2)n1)[C@@H]1CCCN1C` [Example V-11]: the fraction unbound in data set [1] was found to be 0.61. In addition, the half-maximal inhibitory concentration (IC50) in the data set on LOVO cells is 193 nM; in the data set on AsPC-1 cells, 3700 nM.
In turn, `C[C@H]1CN(C)CCN1c1nccc(-c2cc([C@@]3(C)CCCc4sc(N)c(C#N)c43)on2)n1` [Example V-27] returned an IC50 on KRAS (G12V) and SOS1 of 18 nM.

Source of the values: patent US20250313553A1, “ANNULATED 2-AMINO-3-CYANO THIOPHENES AND DERIVATIVES FOR THE TREATMENT OF CANCER” (Boehringer Ingelheim Int'l GmbH Corp., priority 2021, published 2025).
